Measured values: article PMC8273886 (Journal of Medicinal Chemistry, 2021)
“And” between values parts separate entries of the source, which are not always exact repeats. Equal values may be shown once. “Also recorded” adds a separate entry of the source. Bridge positions count the residues as written; N and C are the ends. Square brackets hold non-standard residues; d marks the D form. Peptide text beside a SMILES is read from it.

What was measured:
[1] = Peptide stability in simulated gastric fluid; format: in vitro ADME; settings: SGF pH 1.2 with pepsin, 37 °C
[2] = test system: colonic nociceptors from CVH mice; test: Ex vivo assessment of colonic nociceptor mechanosensitivity; set-up: species or system mouse
Protocol: Single-unit extracellular recordings from splanchnic colonic afferent nerves were performed as previously described.[42],[43],[45],[46],[78] […] The tissue was transferred to ice-cold Krebs solution, and after further dissection, the distal colon was opened longitudinally and pinned flat with its mucosal side up in a specialized, SYLGARD 184-lined (Dow Corning Corp., Midland, MI) organ bath consisting of two adjacent, clear acrylic compartments (Danz Instrument Service, Adelaide, South Australia, Australia). The neurovascular bundle containing the splanchnic nerve was extended from the tissue compartment and laid onto a mirror in the recording compartment. A movable wall with a small “mouse hole” was lowered into position to allow passage of the nerves, and the recording chamber was filled with paraffin oil. The colonic compartment was superfused with a modified Krebs solution (117.9 mM NaCl, 4.7 mM KCl, 25 mM NaHCO3, 1.3 mM NaH2PO4, 1.2 mM MgSO4(H2O)7, 2.5 mM CaCl2, and 11.1 mM D-glucose) and gassed with carbogen (95% O2 and 5% CO2) at a temperature of 34 °C. Smooth muscle activity and endogenous prostaglandins were suppressed by the addition of the L-type calcium channel antagonist nifedipine (1 μM) and prostaglandin synthesis inhibitor indomethacin (3 μM), respectively. […]

mouse KOR [3] = molecular target: T1, mouse KOR (Mus musculus, UniProt P33534); test: Functional cAMP assay; format: cell-based; settings: for Emax: normalized to dyn A 1–13 = 100%, read-out: efficacy cAMP Emax ± SD; for KOR activation in cAMP assay (in words): HEK293 cells stably expressing mouse KOR
[4] = molecular target: T2, mouse KOR-EGFP and β-arrestin-2-nano-luciferase (Mus musculus, UniProt P33534); test: BRET β-arrestin-2 recruitment assay; format: cell-based; settings: normalized to maximum recruitment of dyn A 1–13
T2 construct: expressed in transfected cells; host or cells: HEK293 (transient, jetPRIME)

[5] = test system: motor coordination in mice; settings: mouse, in vivo, ip, 5 mg/kg
mouse KOR [6] = molecular target: T1, mouse KOR; test: Radioligand competition binding assay ([3H]-diprenorphine displacement); settings: 1 nM [3H]-diprenorphine, HEK293 cell membranes stably expressing mouse KOR; read-out: affinity Ki ± SD

Row | SMILES | Emax (mouse KOR [3]) [%] | Ki (mouse KOR [6]) [µM] | other results
1 | CC[C@H](C)[C@H](NC(=O)[C@H](CCCN=C(N)N)NC(=O)[C@H](CCCN=C(N)N)NC(=O)[C@H](CC(C)C)NC(=O)[C@H](Cc1ccccc1)NC(=O)CNC(=O)CNC(=O)[C@@H](N)Cc1ccc(O)cc1)C(=O)N[C@@H](CCCN=C(N)N)C(=O)N1CCC[C@H]1C(=O)N[C@@H](CCCCN)C(=O)N[C@@H](CC(C)C)C(=O)N[C@@H](CCCCN)C(N)=O [dyn A 1–13] | – | – | degradation in simulated gastric fluid (in words) [1]: fully degraded after 15 min
2 | Oc1ccc2c3c1O[C@H]1c4[nH]c5c(c4C[C@@]4(O)[C@@H](C2)N(CC2CC2)CC[C@]314)C[C@@]1(O)[C@H]2Cc3ccc(O)c4c3[C@@]1(CCN2CC1CC1)[C@H]5O4 [nor-BNI, norbinaltorphimine] | – | – | effect on helianorphin-19-induced inhibition of colonic nociceptor mechanosensitivity ([2]; 0.1 μM nor-BNI plus 1 μM helianorphin-19): prevented helianorphin-19-induced inhibition of colonic nociceptor mechanosensitivity; also recorded: did block helianorphin-19 (1 μM)-induced inhibition of colonic nociceptor action potential firing; colonic nociceptor mechanosensitivity, antagonist alone ([2]; 0.1 μM, 5 min pre-incubation): did not affect CVH colonic nociceptor responses to mechanical stimuli; also recorded: did not affect nociceptor mechanosensitivity
3 | CC[C@H](C)[C@@H]1NC(=O)[C@H](CCCNC(=N)N)NC(=O)[C@H](CCCNC(=N)N)NC(=O)[C@H](CC(C)C)NC(=O)[C@H](Cc2ccccc2)NC(=O)CNC(=O)CNC(=O)[C@H](Cc2ccc(O)cc2)NC(=O)[C@@H]2CSSC[C@H](NC1=O)C(=O)N[C@@H]([C@@H](C)O)C(=O)N[C@@H](CCCCN)C(=O)N[C@@H](CO)C(=O)N[C@@H]([C@@H](C)CC)C(=O)N1CCC[C@H]1C(=O)N1CCC[C@H]1C(=O)N[C@@H]([C@@H](C)CC)C(=O)N2 [helianorphin-4] (cyclo(CTKSIPPICYGGFLRRI); disulfide 1-9) | 87.8 ± 33 | – | –
4 | CC[C@H](C)[C@@H]1NC(=O)[C@@H]2CSSC[C@H](NC(=O)[C@H](CCCCN)NC(=O)[C@H](CC(C)C)NC(=O)[C@H](CCCCN)NC(=O)[C@@H]3CCCN3C(=O)[C@H](CCCNC(=N)N)NC1=O)C(=O)N[C@@H](Cc1ccc(O)cc1)C(=O)NCC(=O)NCC(=O)N[C@@H](Cc1ccccc1)C(=O)N[C@@H](CC(C)C)C(=O)N[C@@H](CCCNC(=N)N)C(=O)N[C@@H](CCCNC(=N)N)C(=O)N2 [helianorphin-19] (cyclo(CIRPKLKCYGGFLRR); disulfide 1-8) | 108 ± 11 | – | β-arrestin-2 recruitment Emax [4]: 41.1 ± 3.7% and 41%; rotarod performance (latency to fall) [5]: did not impair rotarod performance
5 | CC[C@H](C)[C@@H]1NC(=O)[C@H](CCCNC(=N)N)NC(=O)[C@H](CC(C)C)NC(=O)[C@H](Cc2ccccc2)NC(=O)CNC(=O)CNC(=O)[C@H](Cc2ccc(O)cc2)NC(=O)[C@@H]2CSSC[C@H](NC1=O)C(=O)N[C@@H](Cc1ccccc1)C(=O)N1CCC[C@H]1C(=O)N[C@@H](CC(=O)O)C(=O)NCC(=O)N[C@@H](CCCNC(=N)N)C(=O)N2 [helianorphin-5] (cyclo(CFPDGRCYGGFLRI); disulfide 1-7) | – | > 10 | –
6 | CC(C)C[C@@H]1NC(=O)[C@H](Cc2ccccc2)NC(=O)CNC(=O)CNC(=O)[C@H](Cc2ccc(O)cc2)NC(=O)[C@H]([C@@H](C)O)NC(=O)[C@@H]2CSSC[C@H](NC(=O)[C@H](CCCNC(=N)N)NC1=O)C(=O)N[C@@H](Cc1ccccc1)C(=O)N1CCC[C@H]1C(=O)N[C@@H](CC(=O)O)C(=O)NCC(=O)N[C@@H](CCCNC(=N)N)C(=O)N2 [helianorphin-6] (cyclo(CFPDGRCTYGGFLR); disulfide 1-7) | – | > 10 | –
7 | CCCC[C@H]1NC(=O)[C@@H](Cc2ccccc2)NC(=O)[C@@H](Cc2ccccc2)NC(=O)[C@H]([C@@H](C)O)NC(=O)[C@@H]2CSSC[C@H](NC(=O)[C@H]([C@@H](C)CC)NC(=O)[C@@H]3CCCN3C(=O)[C@@H](CCCNC(=N)N)NC1=O)C(=O)N[C@@H](Cc1ccccc1)C(=O)N1CCC[C@H]1C(=O)N[C@@H](CC(=O)O)C(=O)NCC(=O)N[C@@H](CCCNC(=N)N)C(=O)N2 [helianorphin-12] | 117 ± 12 | – | KOR activation in cAMP assay (in words) (mouse KOR [3]): fully activates the KOR
8 | CC[C@H](C)[C@@H]1NC(=O)[C@@H]2CCCN2C(=O)[C@@H]2CCCN2C(=O)[C@H]([C@@H](C)CC)NC(=O)[C@H](CO)NC(=O)[C@H](C)NC(=O)[C@H]([C@@H](C)O)NC(=O)[C@@H]2CSSC[C@H](NC1=O)C(=O)N[C@@H](Cc1ccc(O)cc1)C(=O)NCC(=O)NCC(=O)N[C@@H](Cc1ccccc1)C(=O)N[C@@H](CC(C)C)C(=O)N[C@@H](CCCNC(=N)N)C(=O)N2 [helianorphin-7] (cyclo(ASIPPICYGGFLRCT); disulfide 7-14) | – | > 10 | –
9 | CC[C@H](C)[C@@H]1NC(=O)[C@H](CCCNC(=N)N)NC(=O)[C@H](CCCNC(=N)N)NC(=O)[C@H](CC(C)C)NC(=O)[C@H](Cc2ccccc2)NC(=O)CNC(=O)CNC(=O)[C@H](Cc2ccc(O)cc2)NC(=O)[C@@H]2CSSC[C@H](NC1=O)C(=O)N[C@@H](Cc1ccccc1)C(=O)N1CCC[C@H]1C(=O)N[C@@H](CC(=O)O)C(=O)NCC(=O)N[C@@H](CCCNC(=N)N)C(=O)N2 [helianorphin-3] | 85.1 ± 1.8 | – | –
10 | CC[C@H](C)[C@@H]1NC(=O)[C@@H]2CCCN2C(=O)[C@@H](CCCCN)NC(=O)[C@@H](CC(C)C)NC(=O)[C@@H](Cc2ccccc2)NC(=O)[C@@H](Cc2ccccc2)NC(=O)[C@H]([C@@H](C)O)NC(=O)[C@@H]2CSSC[C@H](NC1=O)C(=O)N[C@@H](Cc1ccccc1)C(=O)N1CCC[C@H]1C(=O)N[C@@H](CC(=O)O)C(=O)NCC(=O)N[C@@H](CCCNC(=N)N)C(=O)N2 [helianorphin-10] (cyclo(CFPDGRCT[dF][dF][dL][dK]PI); disulfide 1-7) | – | > 10 | –
11 | CC[C@H](C)[C@@H]1NC(=O)[C@H](CCCNC(=N)N)NC(=O)[C@H](CCCNC(=N)N)NC(=O)[C@H](CC(C)C)NC(=O)[C@H](Cc2ccccc2)NC(=O)CNC(=O)CNC(=O)[C@H](Cc2ccc(O)cc2)NC(=O)[C@@H]2CSSC[C@H](NC(=O)[C@H](CCCCN)NC(=O)[C@H](CC(C)C)NC(=O)[C@H](CCCCN)NC(=O)[C@@H]3CCCN3C(=O)[C@H](CCCNC(=N)N)NC1=O)C(=O)N[C@@H]([C@@H](C)O)C(=O)N[C@@H](CCCCN)C(=O)N[C@@H](CO)C(=O)N[C@@H]([C@@H](C)CC)C(=O)N1CCC[C@H]1C(=O)N1CCC[C@H]1C(=O)N[C@@H]([C@@H](C)CC)C(=O)N2 [helianorphin-2] (cyclo(CTKSIPPICYGGFLRRIRPKLK); disulfide 1-9) | 102 ± 10 | – | KOR activation in cAMP assay (in words) (mouse KOR [3]): fully activated the receptor
12 | CC[C@H](C)[C@@H]1NC(=O)[C@H](CCCNC(=N)N)NC(=O)[C@H](CCCNC(=N)N)NC(=O)[C@H](CC(C)C)NC(=O)[C@H](Cc2ccccc2)NC(=O)CNC(=O)CNC(=O)[C@H](Cc2ccc(O)cc2)NC(=O)[C@@H]2CSSC[C@H](NC(=O)[C@H](CCCCN)NC(=O)[C@H](CC(C)C)NC(=O)[C@H](CCCCN)NC(=O)[C@@H]3CCCN3C(=O)[C@H](CCCNC(=N)N)NC1=O)C(=O)N[C@@H](Cc1ccccc1)C(=O)N1CCC[C@H]1C(=O)N[C@@H](CC(=O)O)C(=O)NCC(=O)N[C@@H](CCCNC(=N)N)C(=O)N2 [helianorphin-1] | 106 ± 8.4 | – | KOR activation in cAMP assay (in words) (mouse KOR [3]): fully activated the receptor
